“Also recorded” adds a separate entry of the source.
What was measured:
[1] = Ex vivo fluorescent imaging of excised popliteal lymph nodes under 980 nm laser; type: in vivo, mouse (C57BL/6); conditions: multi-photon laser scanning microscope
Procedure: To further explore the potential value of these NPIAs, a more detailed lymph node study by PET/MRI imaging was undertaken, investigating the popliteal LN in response to an acute inflammatory stimulus in the foot. A solution of ^18F-labelled Fe3O4@NaYF4(Yb, Tm)-BP-PEG (20 μL, 4.5 MBq, 20 μg Fe) was injected into each of the two rear footpads of a female C57BL/6 mouse in which only the right leg was inflamed. […] A control experiment was carried out with [^18F]-fluoride but without NPs Fe3O4@NaYF4(Yb, Tm)-BP-PEG, under the same conditions. […] By MRI scanning prior to injection of the labellend NPs, no contrast difference was seen on MR images between the normal LN and the inflamed one. The popliteal lymph nodes on the inflamed side were dissected and viewed, together with the adjacent fatty tissue, with a Femtonics (Budapest, Hungary) Fem2D in vivo multi-photon laser scanning microscope under excitation of a 980 nm laser. […] Fluorescent NPIAs were also found inside cells of adjacent fat tissue of the inflamed popliteal LN.

[2] = In vivo PET/MRI imaging of the lymph node system after footpad injection; design: species or system mouse (C57BL/6); conditions: mouse, 6 hours post injection
Procedure: In vivo PET/MRI imaging of the lymph node (LN) system was carried out using a preclinical nanoScan® PET•MRI scanner with 1 T magnetic field (Mediso Ltd, H-1047, Budapest, Hungary), utilising ^18F-labelled CoxFe3-xO4@NaYF4(Yb, Er)-BP-PEG (10 K) or ^18F-labelled Fe3O4@NaYF4(Yb, Tm)-BP-PEG (2 K) NPIAs as probes. After injection of 20 μL of [^18F]-fluoride-labelled CoxFe3-xO4@NaYF4(Yb, Er)-BP-PEG solution containing 6.3 MBq radioactivity and 20 μg Fe into the rear right foot pad of a mouse (C57BL/6, female, 6-7 weeks old, 20 g), coregistered PET and MRI images were recorded 6 hours post injection. The most prominent signal was from the popliteal LN, which is the nearest draining LN from the injection point, and the next most prominent signal was from the medial iliac LN (FIG. 5a, 5c & 5d).
To further explore the potential value of these NPIAs, a more detailed lymph node study by PET/MRI imaging was undertaken, investigating the popliteal LN in response to an acute inflammatory stimulus in the foot. A solution of ^18F-labelled Fe3O4@NaYF4(Yb, Tm)-BP-PEG (20 μL, 4.5 MBq, 20 μg Fe) was injected into each of the two rear footpads of a female C57BL/6 mouse in which only the right leg was inflamed. […] A control experiment was carried out with [^18F]-fluoride but without NPs Fe3O4@NaYF4(Yb, Tm)-BP-PEG, under the same conditions. […]

[^18F]-fluoride
fluorescence of excised inflamed popliteal lymph node [1]: faint granular fluorescence | lymph node signal on PET (and MRI) images [2]: no contrast in lymph nodes; also recorded: did not show any signal at the lymph nodes
